From ChEMBL document CHEMBL1133537, “Chiral derivatives of 2-cyclohexylideneperhydro-4,7-methanoindenes, a novel class of nonsteroidal androgen receptor ligand: synthesis, X-ray analysis, and biological activity” (J Med Chem, 2000) come the findings set out here.

The target of test [1] is T1, Androgen receptor (Rattus norvegicus, UniProt P15207).
T1 sequence (P15207 whole entry): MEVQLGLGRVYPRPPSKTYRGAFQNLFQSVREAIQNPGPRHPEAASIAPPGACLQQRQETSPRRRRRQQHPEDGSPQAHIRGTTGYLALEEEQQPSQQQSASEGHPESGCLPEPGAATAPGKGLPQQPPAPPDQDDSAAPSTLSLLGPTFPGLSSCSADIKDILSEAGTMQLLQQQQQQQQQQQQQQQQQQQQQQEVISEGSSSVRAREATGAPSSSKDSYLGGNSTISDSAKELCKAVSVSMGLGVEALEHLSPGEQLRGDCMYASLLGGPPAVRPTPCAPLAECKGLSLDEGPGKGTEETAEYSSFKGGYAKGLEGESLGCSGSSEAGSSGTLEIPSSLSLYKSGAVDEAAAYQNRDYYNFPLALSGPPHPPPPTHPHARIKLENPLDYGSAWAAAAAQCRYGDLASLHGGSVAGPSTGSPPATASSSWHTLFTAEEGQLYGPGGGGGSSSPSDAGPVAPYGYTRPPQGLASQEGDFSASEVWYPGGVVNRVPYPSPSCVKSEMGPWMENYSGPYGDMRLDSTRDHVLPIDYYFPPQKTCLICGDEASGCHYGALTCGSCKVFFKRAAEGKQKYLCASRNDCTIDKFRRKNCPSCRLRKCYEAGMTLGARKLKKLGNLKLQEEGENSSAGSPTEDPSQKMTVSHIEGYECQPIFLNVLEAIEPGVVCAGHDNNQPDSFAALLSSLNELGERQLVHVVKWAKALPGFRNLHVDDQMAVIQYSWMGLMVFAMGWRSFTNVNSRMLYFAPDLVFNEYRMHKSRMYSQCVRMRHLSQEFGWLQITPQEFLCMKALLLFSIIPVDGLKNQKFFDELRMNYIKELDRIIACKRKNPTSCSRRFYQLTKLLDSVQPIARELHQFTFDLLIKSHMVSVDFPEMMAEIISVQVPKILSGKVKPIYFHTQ
Description: Ability to inhibit binding of [3H]R-1881 to rat ventral prostate cytosolic androgen receptor was measured in a radioligand binding assay.

Test [2] is described as follows: Eudismic ratio which is the ratio of potency of eutomer and distomer.
Test [3] concerns the target T1, Androgen receptor. Nature of the test: […] binding affinity fot cytosolic androgen receptor.

The IC50 is the concentration that gives 50% inhibition. High values mean lower potency, low ones higher potency. In test [1], `C#C[C@]1(O)C[C@@H]2C[C@H]1[C@H]1CC(=C3CCC(=O)CC3)C[C@@H]21` gave an IC50 of 13.5 µM.
For `O=C1CCC(=C2C[C@@H]3[C@@H]4C[C@H]([C@@H]3C2)[C@@](O)(C(F)(F)F)C4)CC1`, the Ratio in test [2] was determined as 2.6. This molecule also displayed an IC50 in test [1] of 41.2 µM.
For `C#C[C@@]1(O)C[C@H]2C[C@@H]1[C@@H]1CC(=C3CCC(=O)CC3)C[C@H]21`, the Ratio in test [2] came out at 4.2. In addition, the IC50 in test [1] amounted to 57 µM.
The term Ki denotes the dissociation constant of the complex between target and ligand, obtained from inhibition or displacement. Lower therefore signals higher affinity. As for `C#C[C@]1(O)CC[C@H]2[C@@H]3CCC4Cc5nn(S(C)(=O)=O)cc5C[C@]4(C)[C@H]3CC[C@@]21C` (stereo partly drawn), the Ki in test [3] amounted to 2.2 µM.
As for `O=C1CCC(=C2C[C@H]3[C@@H](C2)[C@H]2C[C@@H]3[C@H](O)C2)CC1`, the IC50 in test [1] came to 10.4 µM.
Consider `O=C1CCC(=C2C[C@@H]3[C@H](C2)[C@@H]2C[C@H]3[C@H](O)C2)CC1`, for which the affinity in test [3], expressed as Ki, was 0.45 µM. The Ratio in test [2] amounted to 15.5. Moreover, the IC50 in test [1] is 35.9 µM.
Molecule `O=C1CCC(=C2C[C@H]3[C@H]4C[C@@H]([C@H]3C2)[C@](O)(C(F)(F)F)C4)CC1` had an IC50 in test [1] of 15.6 µM.
For `O=C1CCC(=C2C[C@@H]3[C@H]4CC(=O)[C@H](C4)[C@@H]3C2)CC1`, the Ratio in test [2] came out at 2.3. For the same molecule, the concentration for half-maximal inhibition (IC50) in test [1] amounted to 33 µM.
`C=C[C@@]1(O)C[C@H]2C[C@@H]1[C@@H]1CC(=C3CCC(=O)CC3)C[C@H]21` displayed an IC50 in test [1] of 62.5 µM.
For the molecule `O=C1CCC(=C2C[C@@H]3[C@H](C2)[C@@H]2C[C@H]3[C@@H](O)C2)CC1`, the Ratio in test [2] came out at 2.7. Also, 3.9 µM corresponded to half-maximal inhibition in test [1] (IC50).
In test [1], `O=C1CCC(=C2C[C@H]3[C@@H]4CC(=O)[C@@H](C4)[C@H]3C2)CC1` came in with an IC50 of 14.2 µM.
In test [1], `C[C@@]1(O)C[C@H]2C[C@@H]1[C@@H]1CC(=C3CCC(=O)CC3)C[C@H]21` registered an IC50 of 27.4 µM.
